Common to all, as to assay type: functional
The subject of experiment [1] is Enterococcus faecium. Description: Antimicrobial activity against vancomycin-susceptible Enterococcus faecium by broth microdilution method.
The test system of experiment [2] is Enterococcus faecalis. The experiment in a line: Antimicrobial activity against vancomycin-susceptible Enterococcus faecalis by broth microdilution method. On the technique in general: Dilution methods test growth across graded concentrations, often in twofold steps.
Experiment [3] has as its system Staphylococcus aureus. The experiment in a line: Antimicrobial activity against methicillin-susceptible Staphylococcus aureus by broth microdilution method.
In experiment [4] the test system is Streptococcus pneumoniae. Description: Antimicrobial activity against penicillin-resistant Streptococcus pneumoniae by broth microdilution method.
For experiment [5], the system named is Enterococcus faecalis. Description: Antimicrobial activity against vancomycin-resistant Enterococcus faecalis by broth microdilution method.
Experiment [6] concerns Staphylococcus epidermidis. Description: Antimicrobial activity against methicillin-resistant Staphylococcus epidermidis by broth microdilution method.
The next experiment relates to Streptococcus agalactiae. Description: Antimicrobial activity against Streptococcus agalactiae by broth microdilution method.
Experiment [7] concerns Streptococcus pneumoniae. Description: Antimicrobial activity against penicillin-susceptible Streptococcus pneumoniae by broth microdilution method.
The test system of experiment [8] is Enterococcus faecium. Description: Antimicrobial activity against vancomycin-resistant Enterococcus faecium by broth microdilution method.
Experiment [9] deals with Staphylococcus epidermidis. The experiment in a line: Antimicrobial activity against methicillin-susceptible Staphylococcus epidermidis by broth microdilution method.
For experiment [10], the system named is Streptococcus pneumoniae. The experiment in a line: Antimicrobial activity against penicillin-intermediate Streptococcus pneumoniae by broth microdilution method.
In experiment [11] the test system is Staphylococcus aureus. Description: Antimicrobial activity against methicillin-resistant Staphylococcus aureus by broth microdilution method.
For a further experiment, the system named is Haemophilus influenzae. Description: Antimicrobial activity against Haemophilus influenzae by broth microdilution method.
Experiment [12] has as its system Klebsiella pneumoniae. The experiment in a line: Antimicrobial activity against ESBL-production Klebsiella pneumoniae by broth microdilution method.
Experiment [13] deals with Acinetobacter baumannii. Description: Antimicrobial activity against Acinetobacter baumannii by broth microdilution method.
For a further experiment, the system named is Proteus mirabilis. The experiment in a line: Antimicrobial activity against Proteus mirabilis by broth microdilution method.
Experiment [14] concerns Klebsiella pneumoniae. The experiment in a line: Antimicrobial activity against Klebsiella pneumoniae by broth microdilution method.
Experiment [15] deals with Acinetobacter baumannii. Description: Antimicrobial activity against multiple dug-resistant Acinetobacter baumannii by broth microdilution method.
A further experiment deals with Escherichia coli. The experiment in a line: Antimicrobial activity against Escherichia coli by broth microdilution method.
A further experiment relates to Burkholderia cepacia. Description: Antimicrobial activity against Burkholderia cepacia by broth microdilution method.
For a further experiment, the system named is Pseudomonas aeruginosa. Description: Antimicrobial activity against Pseudomonas aeruginosa by broth microdilution method.
For another experiment, the system named is Clostridioides difficile. The experiment in a line: Antimicrobial activity against Clostridium difficile by broth microdilution method.
Another experiment has as its system Serratia marcescens. The experiment in a line: Antimicrobial activity against Serratia marcescens by broth microdilution method.

SMILES strings stand for the structures. Converted amounts (≈) assume the structure as drawn.

In the case of `CCCCCCCCCC(=O)N[C@@H](Cc1c[nH]c2ccccc12)C(=O)N[C@H](CC(N)=O)C(=O)N[C@@H](CC(=O)O)C(=O)N[C@@H]1C(=O)NCC(=O)N[C@@H](CCCN)C(=O)N[C@@H](CC(=O)O)C(=O)N[C@H](C)C(=O)N[C@@H](CC(=O)O)C(=O)NCC(=O)N[C@H](CO)C(=O)N[C@@H]([C@H](C)CC(=O)O)C(=O)N[C@@H](CC(=O)c2ccccc2N)C(=O)O[C@@H]1C`, the MIC50 came out at 4 µg/mL (≈ 2.47 µM) against Enterococcus faecium [1]; 1 µg/mL (≈ 0.617 µM) with Enterococcus faecalis [2]; 0.5 µg/mL (≈ 0.309 µM) against Staphylococcus aureus [3]; 0.06 µg/mL (≈ 0.037 µM) in the experiment on Streptococcus pneumoniae [4]; 0.5 µg/mL (≈ 0.309 µM) in the experiment on Enterococcus faecalis [5]; 0.5 µg/mL (≈ 0.309 µM) in [6]. In addition, the MIC50 against Streptococcus agalactiae stood at 0.5 µg/mL (≈ 0.309 µM); in the experiment on Streptococcus pneumoniae [7] it was 0.06 µg/mL (≈ 0.037 µM); with Enterococcus faecium [8] it was 2 µg/mL (≈ 1.23 µM); in experiment [9], 0.5 µg/mL (≈ 0.309 µM); with Streptococcus pneumoniae [10] it was 0.06 µg/mL (≈ 0.037 µM); against Staphylococcus aureus [11], 0.25 µg/mL (≈ 0.154 µM). The MIC90 in the experiment with Enterococcus faecium [1] turned out to be 4 µg/mL (≈ 2.47 µM); in the experiment on Enterococcus faecalis [2] it was 2 µg/mL (≈ 1.23 µM); in the experiment with Staphylococcus aureus [3], 0.5 µg/mL (≈ 0.309 µM); in the experiment on Streptococcus pneumoniae [4], 0.12 µg/mL (≈ 0.074 µM); in the experiment on Enterococcus faecalis [5] it was 2 µg/mL (≈ 1.23 µM); in experiment [6] it was 1 µg/mL (≈ 0.617 µM). Besides, the MIC90 is 2 µg/mL (≈ 1.23 µM) in the experiment with Streptococcus agalactiae; 0.25 µg/mL (≈ 0.154 µM) in the experiment on Streptococcus pneumoniae [7]; 4 µg/mL (≈ 2.47 µM) in the experiment on Enterococcus faecium [8]; 1 µg/mL (≈ 0.617 µM) in experiment [9]; 0.25 µg/mL (≈ 0.154 µM) in the experiment on Streptococcus pneumoniae [10]; 0.25 µg/mL (≈ 0.154 µM) against Staphylococcus aureus [11]. Besides, the MIC in experiment [6] and in [9] was 0.5 µg/mL (≈ 0.309 µM) each time.
In the experiment with Haemophilus influenzae, `CO/N=C(\C(=O)N[C@@H]1C(=O)N2C(C(=O)O)=C(COC(C)=O)CS[C@H]12)c1csc(N)n1` [CEFOTAXIME] gave an MIC50 of 1 µg/mL (≈ 2.2 µM) and an MIC90 greater than 4 µg/mL.
Regarding `O=C(O)c1cn(C2CC2)c2cc(N3CCNCC3)c(F)cc2c1=O` [CIPROFLOXACIN], the MIC50 was greater than 8 µg/mL against Klebsiella pneumoniae [12]; 0.25 µg/mL (≈ 0.754 µM) against Acinetobacter baumannii [13]; 2 µg/mL (≈ 6.04 µM) with Proteus mirabilis; greater than 32 µg/mL against Klebsiella pneumoniae [14]; 2 µg/mL (≈ 6.04 µM) with Acinetobacter baumannii [15]; 2 µg/mL (≈ 6.04 µM) in the experiment with Escherichia coli. Besides, the MIC50 with Burkholderia cepacia was 2 µg/mL (≈ 6.04 µM); in the experiment on Pseudomonas aeruginosa it was greater than 8 µg/mL. The MIC90 against Klebsiella pneumoniae [12] is greater than 8 µg/mL; in the experiment with Acinetobacter baumannii [13], greater than 2 µg/mL; in the experiment on Proteus mirabilis it was greater than 8 µg/mL; against Klebsiella pneumoniae [14] it was greater than 32 µg/mL; against Acinetobacter baumannii [15], 4 µg/mL (≈ 12.1 µM); against Escherichia coli it was 4 µg/mL (≈ 12.1 µM). Further, the figures for the MIC90 in the experiment on Burkholderia cepacia and against Pseudomonas aeruginosa were 2 µg/mL (≈ 6.04 µM) and greater than 8 µg/mL, respectively. In the experiment on Pseudomonas aeruginosa, this compound returned an MIC greater than 8 µg/mL.
In the experiment with Clostridioides difficile, `CCC[C@@H]1C[C@@H](C(=O)N[C@@H]([C@H]2O[C@H](SC)[C@H](O)[C@@H](O)[C@H]2O)[C@H](C)Cl)N(C)C1` [CLINDAMYCIN] registered an MIC50 of 4 µg/mL (≈ 9.41 µM) and an MIC90 greater than 8 µg/mL.
In the case of `C[C@@H](O)[C@H]1C(=O)N2C(C(=O)O)=C(SCCNC=N)C[C@H]12` [IMIPENEM ANHYDROUS], the MIC50 against Enterococcus faecium [1] is greater than 8 µg/mL; in the experiment with Clostridioides difficile, 4 µg/mL (≈ 13.4 µM); against Enterococcus faecalis [2], 1 µg/mL (≈ 3.34 µM); with Staphylococcus aureus [3], 0.015 µg/mL (≈ 0.0501 µM); against Streptococcus pneumoniae [4], 0.25 µg/mL (≈ 0.835 µM); with Enterococcus faecalis [5], 2 µg/mL (≈ 6.68 µM). For the same compound, the MIC50 in the experiment on Klebsiella pneumoniae [12] is 0.25 µg/mL (≈ 0.835 µM); in [6], 8 µg/mL (≈ 26.7 µM); against Streptococcus agalactiae, 0.06 µg/mL (≈ 0.2 µM); in the experiment on Serratia marcescens it was 4 µg/mL (≈ 13.4 µM); with Streptococcus pneumoniae [7], less than 0.008 µg/mL; with Enterococcus faecium [8] it was 8 µg/mL (≈ 26.7 µM). Also, the MIC50 against Proteus mirabilis was determined as 4 µg/mL (≈ 13.4 µM); against Klebsiella pneumoniae [14] it was 0.12 µg/mL (≈ 0.401 µM); with Acinetobacter baumannii [15], 4 µg/mL (≈ 13.4 µM); in experiment [9], 0.015 µg/mL (≈ 0.0501 µM); against Escherichia coli, 0.25 µg/mL (≈ 0.835 µM); against Burkholderia cepacia, 4 µg/mL (≈ 13.4 µM). In addition, the MIC50 against Streptococcus pneumoniae [10] came to 0.03 µg/mL (≈ 0.1 µM); against Staphylococcus aureus [11] it was 1 µg/mL (≈ 3.34 µM); in the experiment with Pseudomonas aeruginosa it was 1 µg/mL (≈ 3.34 µM). Further, the MIC90 is greater than 8 µg/mL against Enterococcus faecium [1]; 8 µg/mL (≈ 26.7 µM) with Clostridioides difficile; 4 µg/mL (≈ 13.4 µM) against Enterococcus faecalis [2]; 0.03 µg/mL (≈ 0.1 µM) against Staphylococcus aureus [3]; 1 µg/mL (≈ 3.34 µM) against Streptococcus pneumoniae [4]; 2 µg/mL (≈ 6.68 µM) against Enterococcus faecalis [5]. Also, the MIC90 against Klebsiella pneumoniae [12] was 1 µg/mL (≈ 3.34 µM); in experiment [6], greater than 8 µg/mL; against Acinetobacter baumannii [13] it was greater than 32 µg/mL; with Streptococcus agalactiae, 0.06 µg/mL (≈ 0.2 µM); against Serratia marcescens it was greater than 8 µg/mL; in the experiment on Streptococcus pneumoniae [7] it was less than 0.008 µg/mL. Also, the MIC90 against Enterococcus faecium [8] was 8 µg/mL (≈ 26.7 µM); in the experiment with Proteus mirabilis it was 8 µg/mL (≈ 26.7 µM); with Klebsiella pneumoniae [14], 1 µg/mL (≈ 3.34 µM); in experiment [9], 0.015 µg/mL (≈ 0.0501 µM); against Escherichia coli, 0.25 µg/mL (≈ 0.835 µM); against Burkholderia cepacia it was greater than 8 µg/mL. Besides, the MIC90 in the experiment on Streptococcus pneumoniae [10] was 0.25 µg/mL (≈ 0.835 µM); against Staphylococcus aureus [11], 8 µg/mL (≈ 26.7 µM); against Pseudomonas aeruginosa, greater than 8 µg/mL. Moreover, the MIC in the experiment with Streptococcus agalactiae is 0.06 µg/mL (≈ 0.2 µM); against Streptococcus pneumoniae [7], less than 0.008 µg/mL; with Enterococcus faecium [8], 8 µg/mL (≈ 26.7 µM); in [9] it was 0.015 µg/mL (≈ 0.0501 µM); in the experiment with Burkholderia cepacia it was 4 µg/mL (≈ 13.4 µM); against Pseudomonas aeruginosa it was 0.05 µg/mL (≈ 0.167 µM).

The MIC is the lowest concentration found to suppress growth. The low end stands for greater potency, the high end for weaker potency.

The values above are taken from ChEMBL document CHEMBL1671722, “Comparative in vitro activity profiles of novel bis-indole antibacterials against gram-positive and gram-negative clinical isolates” (Antimicrob Agents Chemother, 2010).
